Laboratory results as given in patent US4496578A, “Antihypertensive sulfur-containing compounds” (Santen Pharmaceutical Co., Ltd., priority 1978, dated 1985).

Test system: angiotensin I-converting enzyme
Test: Percent inhibition of pressor response to angiotensin I in unanesthetized rats after oral administration (ACE inhibition in vivo)
Design: species or system Male Wistar strain rats
Description: As recently it has been clear that the compounds inhibiting angiotensin I-converting enzyme may be the curative potency against both renal hypertension and essential hypertension, the compounds of this invention are evaluated as antihypertensive agents by the following method.
Male Wistar strain rats weighing 200-300 g were used. Under ether anesthesia, polyethylene cannulae are inserted into carotid artery and jugular vein. The cannula to carotid artery is connected to an electric transducer, while the cannula to jugular vein is connected to an apparatus for continuous infusion. After the complete recovery from anesthesia, angiotensin I is infused intravenously in a dose of 300 ng/kg by the apparatus for continuous infusion, and the pressor response is recorded by polygraph (Nihon Koden, RM-150). The compounds of this invention suspended in 0.5% tragacanth solution are addministered orally in a dose of 0.3 ml per 100 g of body weight, and the pressor response to angiotensin I infused intravenously is measured with time.

[1] = 5 min after oral dose, mg/kg: 2 1.8, 2A 1.3, 2B 1.8, 22 1.5, 22A 1.0, 22B 1.4, 32 1.7, 32C 1.3, 64 1.9
[2] = 15 min after oral dose, mg/kg: 2 1.8, 2A 1.3, 2B 1.8, 22 1.5, 22A 1.0, 22B 1.4, 32 1.7, 32C 1.3, 64 1.9
[3] = 25 min after oral dose, mg/kg: 2 1.8, 2A 1.3, 2B 1.8, 22 1.5, 22A 1.0, 22B 1.4, 32 1.7, 32C 1.3, 64 1.9
[4] = 35 min after oral dose, mg/kg: 2 1.8, 2A 1.3, 2B 1.8, 22 1.5, 22A 1.0, 22B 1.4, 32 1.7, 32C 1.3, 64 1.9
[5] = 45 min after oral dose, mg/kg: 2 1.8, 2A 1.3, 2B 1.8, 22 1.5, 22A 1.0, 22B 1.4, 32 1.7, 32C 1.3, 64 1.9
[6] = 55 min after oral dose, mg/kg: 2 1.8, 2A 1.3, 2B 1.8, 22 1.5, 22A 1.0, 22B 1.4, 32 1.7, 32C 1.3, 64 1.9
[7] = 65 min after oral dose, mg/kg: 2 1.8, 2A 1.3, 2B 1.8, 22 1.5, 22A 1.0, 22B 1.4, 32 1.7, 32C 1.3, 64 1.9
[8] = 75 min after oral dose, mg/kg: 2 1.8, 2A 1.3, 2B 1.8, 22 1.5, 22A 1.0, 22B 1.4, 32 1.7, 32C 1.3, 64 1.9
[9] = 85 min after oral dose, mg/kg: 2 1.8, 2A 1.3, 2B 1.8, 22 1.5, 22A 1.0, 22B 1.4, 32 1.7, 32C 1.3, 64 1.9
[10] = 95 min after oral dose, mg/kg: 2 1.8, 2A 1.3, 2B 1.8, 22 1.5, 22A 1.0, 22B 1.4, 32 1.7, 32C 1.3, 64 1.9
[11] = 105 min after oral dose, mg/kg: 2 1.8, 2A 1.3, 2B 1.8, 22 1.5, 22A 1.0, 22B 1.4, 32 1.7, 32C 1.3, 64 1.9
[12] = 115 min after oral dose, mg/kg: 2 1.8, 2A 1.3, 2B 1.8, 22 1.5, 22A 1.0, 22B 1.4, 32 no value, 32C 1.3, 64 1.9

SMILES	Inhibition (%) of pressor response to angiotensin I [1] [%]	Inhibition (%) of pressor response to angiotensin I [2] [%]	Inhibition (%) of pressor response to angiotensin I [3] [%]	Inhibition (%) of pressor response to angiotensin I [4] [%]	Inhibition (%) of pressor response to angiotensin I [5] [%]	Inhibition (%) of pressor response to angiotensin I [6] [%]	Inhibition (%) of pressor response to angiotensin I [7] [%]	Inhibition (%) of pressor response to angiotensin I [8] [%]	Inhibition (%) of pressor response to angiotensin I [9] [%]	Inhibition (%) of pressor response to angiotensin I [10] [%]	Inhibition (%) of pressor response to angiotensin I [11] [%]	Inhibition (%) of pressor response to angiotensin I [12] [%]
C[C@H](CSC(=O)c1ccccc1)C(=O)N1CSC[C@H]1C(=O)OCOC(=O)C(C)(C)C [Compound 64, (2,2-Dimethyl-1-oxopropoxy)methyl (4R)-3-[(2S)-S-benzoyl-3-mercapto-2-methylpropanoyl]-4-thiazolidinecarboxylate]	30.0	59.5	69.5	59.9	55.7	53.5	47.1	37.2	36.5	30.8	27.8	24.5
O=C(O)[C@@H]1CSC(c2ccccc2O)N1C(=O)CCS (stereo partly drawn) [Compound 32C]	53.3	62.9	64.7	63.7	54.0	49.3	47.7	38.8	34.0	30.0	30.0	31.0
C[C@H](CS)C(=O)N1C(C(=O)O)CCC1c1ccccc1O (stereo partly drawn) [Compound 2A]	20.0	40.0	37.5	36.5	33.7	30.0	28.2	20.0	30.0	24.8	21.0	20.0
C[C@H](CS)C(=O)N1CSC[C@H]1C(=O)O [Compound 22A, (4R)-3-[(2S)-3-mercapto-2-methylpropanoyl]-4-thiazolidinecarboxylic acid]	34.0	51.5	49.7	45.0	37.5	30.2	30.2	30.2	28.0	19.8	10.2	8.0
Cc1ccc(C(=O)SC[C@@H](C)C(=O)N2CSC[C@H]2C(=O)O)cc1 [Compound 22]	45.2	60.4	51.4	59.0	55.0	50.8	55.0	53.5	49.4	46.5	39.8	31.6
C[C@H](CSC(=O)c1ccccc1)C(=O)N1C(C(=O)O)CCC1c1ccccc1O (stereo partly drawn) [Compound 2B]	7.9	36.8	36.8	36.8	45.7	31.6	31.6	31.6	21.1	21.1	15.8	15.8
Cc1ccc(C(=O)SC[C@@H](C)C(=O)N2C(C(=O)O)CCC2c2ccccc2O)cc1 (stereo partly drawn) [Compound 2]	39.3	58.1	64.0	60.0	73.0	57.2	55.0	54.5	42.0	39.5	42.0	37.0
C[C@H](CSC(=O)c1ccccc1)C(=O)N1CSC[C@H]1C(=O)O [Compound 22B, (4R)-3-[(2S)-S-benzoyl-3-mercapto-2-methylpropanoyl]-4-thiazoldinecarboxylic acid]	45.4	60.7	60.6	45.4	45.4	45.4	42.4	36.4	30.3	21.2	21.2	21.2
